Source: ChEMBL document CHEMBL3763105, “Semisynthesis of new aphidicolin derivatives with high activity against Trypanosoma cruzi” (Bioorg Med Chem Lett, 2016)

Key:
[1] = Cytotoxicity against mouse C3H cells after 72 hrs by MTS assay; assay type: cell-based
[2] = Selectivity index, ratio of IC50 for mouse C3H cells to IC50 for Trypanosoma cruzi Tulahuen amastigotes infected in mouse C3H cells; assay type: toxicity, cell-based; details: read-out: Ratio IC50
[3] = tested on: Trypanosoma cruzi; test: Antitrypanosomal activity against Trypanosoma cruzi Tulahuen amastigotes infected in mouse C3H cells after 72 hrs by microplate reader analysis; assay type: functional, organism-based

| SMILES | IC50 [1] [µM] | selectivity ratio [2] | IC50 [3] [µM] |
| --- | --- | --- | --- |
| C[C@]1(CO)/C(=N\O)CC[C@]2(C)[C@@H]1CC[C@@H]1C[C@H]3C[C@]12CC[C@@]3(O)CO | 64.5 | 37.9 | 1.7 |
| CC(C)(C)[Si](C)(C)OC[C@]1(O)CC[C@@]23C[C@@H]1C[C@H]2CC[C@@H]1[C@@](C)(CO[Si](C)(C)C(C)(C)C)[C@@H](O)CC[C@]13C |  |  | > 100 |
| CC(C)(C)[Si](C)(C)OC[C@]1(O)CC[C@@]23C[C@@H]1C[C@H]2CC[C@@H]1[C@@](C)(CO[Si](C)(C)C(C)(C)C)C(=O)CC[C@]13C |  |  | > 100 |
| C[C@]12COS(=O)O[C@H]1CC[C@]1(C)[C@@H]2CC[C@@H]2C[C@H]3C[C@]21CC[C@@]3(O)CO (some centres not stated) | > 100 | > 100 | 0.78 |
| COc1cccc2c1C(=O)c1c(O)c3c(c(O)c1C2=O)C[C@@](O)(C(=O)CO)C[C@@H]3O[C@H]1C[C@H](N)[C@H](O)[C@H](C)O1 [DOXORUBICIN] | 0.04 |  |  |
| O=C(Cn1ccnc1[N+](=O)[O-])NCc1ccccc1 [BENZNIDAZOLE] | > 100 | > 100 | 3 |
